{"source": "patent US20230086913A1", "about": "“USE OF SOPHOROLIPIDS AS FEED ADDITIVE” (DSM IP ASSETS B.V., priority 2017, published 2023)", "key": {"human PBLs": {"tested_on": "human PBLs", "test": "Effect of sophorolipids on inflammatory mediators in LPS-treated human PBLs", "type": "cell-based", "settings": "1, 5 and 10 μm", "experimental": "PBLs were isolated from human blood. PBLs were treated with LPS to induce inflammatory response in the presence of different concentrations (1 μm, 5 μm, and 10 μm) of six sophorolipids: […]); BSL(6'OH,6''OH); and BSL(6'Ac,6''Ac)."}, "Microglial cells": {"tested_on": "Microglial cells", "test": "Effect of sophorolipid pre-treatment on inflammatory mediators in LPS-stimulated microglia", "type": "cell-based, rats", "settings": "E22 rat primary microglia, 24 h pre-treatment, LPS stimulation", "experimental": "Microglial cells were obtained from primary microglial cultures from […] rats. On day 1, microglial cells were seeded in 96-well plates and allowed to adhere for 24 hours. On day 3, the microglial cells were pre-treated with sophorolipid for 24 hours (n=11). On day 4, the microglial cells were stimulated with lipopolysaccharide (LPS). On day 5, supernatants were collected and analysed for cytokines of interest."}}, "note": "pIC50: −log10 of the molar value. Read-outs that look alike come from different tables or passages of the source.", "data": [{"compound": "CCOC(=O)CCCCCCC/C=C\\CCCCCC[C@H](C)O[C@@H]1O[C@H](CO)[C@@H](O)[C@H](O)[C@H]1O[C@@H]1O[C@H](COC(C)=O)[C@@H](O)[C@H](O)[C@H]1O", "note": "(relative stereo) [ESL(6′OH,6″Ac), ethyl-17-L-[(2′-0-β-D-glucopyranosyl-β-D-glucopyranosyl)-oxy]-cis-9-octadecenoate-6″-acetate]", "values": [{"measurement": "MIP-1β secretion", "setting": "human PBLs", "result": "decreased"}, {"measurement": "TNF-α secretion", "setting": "human PBLs", "result": "decreased"}]}, {"compound": "CCCCOC(=O)CCCCCCC/C=C\\CCCCCC[C@H](C)O[C@@H]1O[C@H](COC(C)=O)[C@@H](O)[C@H](O)[C@H]1O[C@@H]1O[C@H](COC(C)=O)[C@@H](O)[C@H](O)[C@H]1O", "note": "(relative stereo) [BSL(6′Ac,6″Ac), butyl-17-L-[(2′-0-β-D-glucopyranosyl-β-D-glucopyranosyl)-oxy]-cis-9-octadecenoate-6′-6″-diacetate]", "values": [{"measurement": "TNF-α secretion", "setting": "human PBLs", "result": "decreased"}]}, {"compound": "Sophorolipid", "values": [{"measurement": "pIC50", "setting": "Microglial cells; read-out: PGE2 secretion, 1050", "result": 4.53}, {"measurement": "pIC50", "setting": "Microglial cells; read-out: TNF-alpha secretion, 1050", "result": 4.67}]}, {"compound": "CCOC(=O)CCCCCCC/C=C\\CCCCCC[C@H](C)O[C@@H]1O[C@H](COC(C)=O)[C@@H](O)[C@H](O)[C@H]1O[C@@H]1O[C@H](COC(C)=O)[C@@H](O)[C@H](O)[C@H]1O", "note": "(relative stereo) [ESL(6′Ac,6″Ac), ethyl-17-L-[(2′-0-β-D-glucopyranosyl-β-D-glucopyranosyl)-oxy]-cis-9-octadecenoate-6′-6-diacetate]", "values": [{"measurement": "IL-1β secretion", "setting": "human PBLs", "result": "decreased"}, {"measurement": "IL-6 secretion", "setting": "human PBLs", "result": "decreased"}, {"measurement": "IL-8 secretion", "setting": "human PBLs", "result": "decreased"}, {"measurement": "MIP-1β secretion", "setting": "human PBLs", "result": "decreased"}, {"measurement": "TNF-α secretion", "setting": "human PBLs", "result": "decreased"}]}]}
